The source of these data is US20210275657A1, “NEOANTIGENS AND USES THEREOF” (BioNTech US Inc., priority 2018, published 2021).

Where no end group is shown, it is not given here.

Test [1] deals with T1, indicated HLA alleles (Homo sapiens, UniProt P04439). Nature of the test: Stability of mutant BTK neopeptides with the HLA alleles. Type of test: binding. The conditions noted are these: BTK, C481S; HLA A03.01. The protocol:
(§1) Multiple peptides containing neoepitopes in the table below were either expressed or loaded onto antigen presenting cells. Mass spectrometry was then performed and the affinity of the neoepitopes for indicated HLA alleles were determined, and the stability of the neoepitopes with the HLA alleles were determined.

For test [2], the system named is indicated HLA alleles. The test is described as above. The format is binding, human. The protocol: as §1
Test [3] concerns the target T1, indicated HLA alleles. Nature of the test: Affinity of mutant BTK neopeptides for indicated HLA alleles. Type of test: binding. The protocol:
as §1

Test [4] has as its target indicated HLA alleles. The test is described as above. The format is binding, human. The protocol: as §1
For test [5], the target named is T2, indicated HLA alleles (Homo sapiens, UniProt P01889). The description is as above. Type of test: binding. The protocol: as §1
Test [6] addresses T3, HLA-B07:02 (Homo sapiens, UniProt P01889). As to the kind of experiment: Affinity measurements, competition with radiolabeled peptide (Example 20). The format is binding.
For test [7], the system named is indicated HLA alleles. As to the kind of experiment: Stability of GATA3 neoORF neoepitopes with the HLA alleles (Example 9, Table 4). The format is binding, human. The protocol:
(§2) Multiple peptides containing the neoepitopes in Table 4 below were expressed or loaded onto antigen presenting cells (APCs). Mass spectrometry was then performed and the affinity of the neoepitopes for the indicated HLA alleles and stability of the neoepitopes with the HLA alleles was determined.

The target of test [8] is T3, HLA-B07:02. As to the kind of experiment: Detection of GATA3 neoORF peptides by mass spectrometry (Example 8). The note with it: 293T cells transduced with GATA3 neoORF lentiviral vector, expressing HLA-B07:02; eluted peptides, MS/MS. The format is cell-based.
Test [9] concerns the target T2, indicated HLA alleles. Nature of the test: Affinity of GATA3 neoORF neoepitopes for the indicated HLA alleles (Example 9, Table 4). The format is binding. The protocol:
as §2

The target of test [10] is T3, HLA-B07:02. Nature of the test: Stability measurements, pMHC-I dissociation with 125I light chain (Example 20). The format is binding. The protocol:
(§3) To measure the binding stability of peptides to Class I MHC, synthetic genes encoding biotinylated MHC-I heavy and light chains are expressed in E. coli and purified from inclusion bodies using standard methods. […] These reactions were carried out in streptavidin coated microplates to bind the biotinylated MHC-I heavy chains to the surface and allow measurement of radiolabeled light chain to monitor complex formation. Dissociation was initiated by addition of higher concentrations of unlabeled light-chain and incubation at 37° C. Stability was defined as the length of time in hours it takes for half of the complexes to dissociate, as measured by scintillation counts. Duplicate measurements were performed. The average of the two measurements was taken as the stability.

For test [11], the target named is T4, HLA-A02:01 (Homo sapiens, UniProt P04439, D140Y/D185E/D98H/E176V/E277Q/G131W/G231S/I119V/I121R/I166T/I218V/L300P/L318F/N151K/N90K/P208A/P217A/Q86G/Q94H/R138H/R169H/T345S). As to the kind of experiment: Affinity measurements, competition with radiolabeled peptide (Example 20). The format is binding.
Test [12] deals with indicated HLA alleles. As to the kind of experiment: Affinity of GATA3 neoORF neoepitopes for the indicated HLA alleles (Example 9, Table 4). The conditions noted are these: read-out: Observed MHC affinity. Type of test: binding, human. The protocol:
as §2

Test [13] has as its target T4, HLA-A02:01. Nature of the test: Stability measurements, pMHC-I dissociation with 125I light chain (Example 20). Type of test: binding. The protocol: as §3
The target in test [14] is T1, indicated HLA alleles. Nature of the test: Affinity of GATA3 neoORF neoepitopes for the indicated HLA alleles (Example 9, Table 4). The format is binding. The protocol:
as §2

The conditions of test [15]: ovarian carcinoma patients, poly-ICLC with NYESO-1 peptide vaccine (in addition to Montanide), phase 1 study; cited from earlier work.

`CSCC[C@H](N)C(=O)N[C@@H](C)C(=O)N[C@@H](CC(N)=O)C(=O)NCC(=O)N[C@@H](CO)C(=O)N[C@@H](CC(C)C)C(=O)N[C@@H](CC(C)C)C(=O)N[C@@H](CC(N)=O)C(=O)N[C@@H](Cc1ccc(O)cc1)C(=O)O`: the “Stability (1/2 hr)” value at indicated HLA alleles [1] amounted to 0.238 h; in the test on indicated HLA alleles [2] (BTK, C481S, HLA A01.01), 0.2164 h. The Kd on indicated HLA alleles [3] stood at 35.6 nM; on indicated HLA alleles [4] (BTK, C481S, HLA A01.01), 439 nM; on indicated HLA alleles [4] (BTK, C481S, HLA A11.01), 536 nM.
Take `CSCC[C@H](NC(=O)[C@H](CCC(=O)O)NC(=O)[C@H](CCCNC(=N)N)NC(=O)[C@H](CC(C)C)NC(=O)[C@H](Cc1ccc(O)cc1)NC(=O)[C@H](CC(N)=O)NC(=O)[C@H](CC(C)C)NC(=O)[C@H](CC(C)C)NC(=O)[C@@H](N)CO)C(=O)O`: the “Stability (1/2 hr)” value was 3.044 h in the test on indicated HLA alleles [2] (BTK_C481S, HLA A02.01); 0 h with indicated HLA alleles [2] (BTK_C481S, HLA B07.02); 0 h in the test on indicated HLA alleles [2] (BTK_C481S, HLA B08.01). For the same compound, the Kd on indicated HLA alleles [5] was 866 nM; on indicated HLA alleles [4] (BTK_C481S, HLA A02.01) it was 67.7 nM; at indicated HLA alleles [4] (BTK_C481S, HLA B08.01) it was 960 nM.
In general, IC50 refers to the concentration needed to halve the response being measured. A low value points to greater potency. For the compound KPKRDGYMFL, the IC50 on HLA-B07:02 [6] turned out to be 115 nM. Besides, the “Observed MHC stability” value with indicated HLA alleles [7] (Allele B07:02) is 3.3 h. On HLA-B07:02 [8], the “detected by mass spectrometry” value is “detected”. On indicated HLA alleles [9], this compound yielded a Kd of 98 nM. In addition, at HLA-B07:02 [10], the “Experiment 1 half-life” value was 3.3 h and the “Experiment 2 half-life” value is 3.3 h. For the same compound, on HLA-B07:02 [10] (average of experiments 1 and 2), the Average half-life came out at 3.3 h.
As to TLQRSSLWCL, the “Observed MHC stability” value with indicated HLA alleles [7] (Allele A02.01) amounted to 0.5 h. The compound also yielded an IC50 at HLA-A02:01 [11] of 281 nM. At indicated HLA alleles [12] (Allele A02.01), the Kd is 118 nM. In addition, on HLA-A02:01 [13], the “Experiment 1 half-life” value was determined as 0.5 h and the “Experiment 2 half-life” value is 0.5 h. On HLA-A02:01 [13] (average of experiments 1 and 2), this compound showed an Average half-life of 0.5 h.
On to VLWTTPPLQH, for which the “Observed MHC stability” value in the test on indicated HLA alleles [7] (Allele A03:01) was 0.3 h; with indicated HLA alleles [7] (Allele A11:01) it was 0 h. Also, the Kd stood at 16 nM at indicated HLA alleles [14] and 4540 nM on indicated HLA alleles [12] (Allele A11:01).
Regarding YMANGSLLNY, the “Stability (1/2 hr)” value at indicated HLA alleles [1] came out at 0.2791 h; in the test with indicated HLA alleles [2] (BTK, C481S, HLA A01.01), 0.8662 h. Besides, the Kd at indicated HLA alleles [3] came out at 95.9 nM; on indicated HLA alleles [4] (BTK, C481S, HLA A01.01) it was 13.2 nM; on indicated HLA alleles [4] (BTK, C481S, HLA A11.01) it was 974 nM.
In the case of poly-ICLC, the “patients showing induction of CD4+ and CD8+ T cell and antibody responses to the peptide” value in test [15] is given as above 90%.
